System: 598228-144-R-J1-PDC complex spheroid viability
Assay: Anticancer human tumor 598228-144-R-J1-PDC patient-derived serous endometrial adenocarcinoma cell line growth inhibition [GQUAD]
Settings: for IC50: curve of first compound; for viability, T/C: stronger effect = lower value
How it was run: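 Viability of tumor cells grown as complex spheroids with endothelial and stromal cells, exposed to drug combinations. Top concentration at or near clinical Cmax (else 10 microM), diluted in half-log increments.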

[1] = second compound 0.0316 µM, first compound 0.0316 µM
[2] = second compound 0.0316 µM, first compound 0.1 µM
[3] = second compound 0.0316 µM, first compound 0.316 µM
[4] = second compound 0.0316 µM, first compound 1 µM
[5] = second compound 0.0316 µM, first compound 3.16 µM
[6] = second compound 0.0316 µM, first compound 10 µM
[7] = second compound 0.1 µM, first compound 0.0316 µM
[8] = second compound 0.1 µM, first compound 0.1 µM
[9] = second compound 0.1 µM, first compound 0.316 µM
[10] = second compound 0.1 µM, first compound 1 µM
[11] = second compound 0.1 µM, first compound 3.16 µM
[12] = second compound 0.1 µM, first compound 10 µM
[13] = second compound 0.316 µM, first compound 0.0316 µM
[14] = second compound 0.316 µM, first compound 0.1 µM
[15] = second compound 0.316 µM, first compound 0.316 µM
[16] = second compound 0.316 µM, first compound 1 µM
[17] = second compound 0.316 µM, first compound 3.16 µM
[18] = second compound 0.316 µM, first compound 10 µM
[19] = second compound 1 µM, first compound 0.0316 µM
[20] = second compound 1 µM, first compound 0.1 µM
[21] = second compound 1 µM, first compound 0.316 µM
[22] = second compound 1 µM, first compound 1 µM
[23] = second compound 1 µM, first compound 3.16 µM
[24] = second compound 1 µM, first compound 10 µM
[25] = second compound 3.16 µM, first compound 0.0316 µM
[26] = second compound 3.16 µM, first compound 0.1 µM
[27] = second compound 3.16 µM, first compound 0.316 µM
[28] = second compound 3.16 µM, first compound 1 µM
[29] = second compound 3.16 µM, first compound 3.16 µM
[30] = second compound 3.16 µM, first compound 10 µM
[31] = second compound 10 µM, first compound 0.0316 µM
[32] = second compound 10 µM, first compound 0.1 µM
[33] = second compound 10 µM, first compound 0.316 µM
[34] = second compound 10 µM, first compound 1 µM
[35] = second compound 10 µM, first compound 3.16 µM
[36] = second compound 10 µM, first compound 10 µM
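Also: spheroids exposed to the agents for one week before reading.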
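For viability, T/C in this document: percent of vehicle DMSO control viability so 100% = untreated growth.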

SMILES: C=CC(=O)N1CCN(c2nc(=O)n(-c3c(C)ccnc3C(C)C)c3nc(-c4c(O)cccc4F)c(F)cc23)C(C)C1 (stereo not drawn) + Cc1[nH]c2ccc(F)cc2c1-c1nc2c3cccnc3c3ncccc3c2[nH]1
- IC50 (second compound 0.0316 µM): > 10000 nM
- IC50 (second compound 0.1 µM): > 10000 nM
- IC50 (second compound 0.316 µM): > 10000 nM
- IC50 (second compound 1 µM): > 10000 nM
- IC50 (second compound 3.16 µM): < 31.6 nM
- IC50 (second compound 10 µM): > 10000 nM
- viability, T/C [1]: 119%
- viability, T/C [2]: 95%
- viability, T/C [3]: 105%
- viability, T/C [4]: 132%
- viability, T/C [5]: 136%
- viability, T/C [6]: 123%
- viability, T/C [7]: 88.4%
- viability, T/C [8]: 110%
- viability, T/C [9]: 102%
- viability, T/C [10]: 129%
- viability, T/C [11]: 136%
- viability, T/C [12]: 151%
- viability, T/C [13]: 75.9%
- viability, T/C [14]: 94.8%
- viability, T/C [15]: 99.5%
- viability, T/C [16]: 108%
- viability, T/C [17]: 159%
- viability, T/C [18]: 108%
- viability, T/C [19]: 58.6%
- viability, T/C [20]: 62.9%
- viability, T/C [21]: 63.7%
- viability, T/C [22]: 75.6%
- viability, T/C [23]: 89.3%
- viability, T/C [24]: 101%
- viability, T/C [25]: 36.1%
- viability, T/C [26]: 37.2%
- viability, T/C [27]: 55.9%
- viability, T/C [28]: 57.7%
- viability, T/C [29]: 59.5%
- viability, T/C [30]: 70%
- viability, T/C [31]: 57.1%
- viability, T/C [32]: 75.6%
- viability, T/C [33]: 63.8%
- viability, T/C [34]: 69.1%
- viability, T/C [35]: 80.9%
- viability, T/C [36]: 103%

SMILES: CC1COCCN1c1cc(C2(O)CC3CCC(C2)O3)c2cnn(-c3ccn[nH]3)c2n1 (stereo not drawn) + Cc1[nH]c2ccc(F)cc2c1-c1nc2c3cccnc3c3ncccc3c2[nH]1
- IC50 (second compound 0.0316 µM): 144 nM
- IC50 (second compound 0.1 µM): 95 nM
- IC50 (second compound 0.316 µM): < 31.6 nM
- IC50 (second compound 1 µM): < 31.6 nM
- IC50 (second compound 3.16 µM): < 31.6 nM
- IC50 (second compound 10 µM): < 31.6 nM
- viability, T/C [1]: 68%
- viability, T/C [2]: 48%
- viability, T/C [3]: 39%
- viability, T/C [4]: 40.7%
- viability, T/C [5]: 28%
- viability, T/C [6]: 14%
- viability, T/C [7]: 61.3%
- viability, T/C [8]: 40.1%
- viability, T/C [9]: 46.8%
- viability, T/C [10]: 34.9%
- viability, T/C [11]: 31.5%
- viability, T/C [12]: 17.4%
- viability, T/C [13]: 48.8%
- viability, T/C [14]: 44.1%
- viability, T/C [15]: 44.2%
- viability, T/C [16]: 37.6%
- viability, T/C [17]: 28.3%
- viability, T/C [18]: 12.6%
- viability, T/C [19]: 48.9%
- viability, T/C [20]: 37.1%
- viability, T/C [21]: 38%
- viability, T/C [22]: 27.4%
- viability, T/C [23]: 19.9%
- viability, T/C [24]: 12.7%
- viability, T/C [25]: 36.8%
- viability, T/C [26]: 38.8%
- viability, T/C [27]: 30.3%
- viability, T/C [28]: 26.7%
- viability, T/C [29]: 18.3%
- viability, T/C [30]: 8.63%
- viability, T/C [31]: 41.4%
- viability, T/C [32]: 37.4%
- viability, T/C [33]: 31.6%
- viability, T/C [34]: 29.7%
- viability, T/C [35]: 25.4%
- viability, T/C [36]: 12.1%

SMILES: Cc1cccc(N(C)C(=O)C2C(O)CCN2c2nc(C)cc(C(F)(F)F)c2C#N)c1 (stereo not drawn) + Cc1[nH]c2ccc(F)cc2c1-c1nc2c3cccnc3c3ncccc3c2[nH]1
- IC50 (second compound 0.0316 µM): > 10000 nM
- IC50 (second compound 0.1 µM): > 10000 nM
- IC50 (second compound 0.316 µM): > 10000 nM
- IC50 (second compound 1 µM): > 10000 nM
- IC50 (second compound 3.16 µM): < 31.6 nM
- IC50 (second compound 10 µM): > 10000 nM
- viability, T/C [1]: 114%
- viability, T/C [2]: 113%
- viability, T/C [3]: 112%
- viability, T/C [4]: 82%
- viability, T/C [5]: 104%
- viability, T/C [6]: 100%
- viability, T/C [7]: 110%
- viability, T/C [8]: 112%
- viability, T/C [9]: 98%
- viability, T/C [10]: 94.1%
- viability, T/C [11]: 104%
- viability, T/C [12]: 81.7%
- viability, T/C [13]: 99.8%
- viability, T/C [14]: 90.3%
- viability, T/C [15]: 80.9%
- viability, T/C [16]: 79.2%
- viability, T/C [17]: 83.9%
- viability, T/C [18]: 92.7%
- viability, T/C [19]: 58.6%
- viability, T/C [20]: 52.7%
- viability, T/C [21]: 56.2%
- viability, T/C [22]: 45%
- viability, T/C [23]: 71.1%
- viability, T/C [24]: 57.7%
- viability, T/C [25]: 40.8%
- viability, T/C [26]: 45.4%
- viability, T/C [27]: 52.6%
- viability, T/C [28]: 34.9%
- viability, T/C [29]: 39.5%
- viability, T/C [30]: 36.1%
- viability, T/C [31]: 68.4%
- viability, T/C [32]: 44.8%
- viability, T/C [33]: 53.5%
- viability, T/C [34]: 67.3%
- viability, T/C [35]: 58%
- viability, T/C [36]: 61.6%

SMILES: Cn1ncnc1[C@H]1c2n[nH]c(=O)c3cc(F)cc(c23)N[C@@H]1c1ccc(F)cc1 + Cc1[nH]c2ccc(F)cc2c1-c1nc2c3cccnc3c3ncccc3c2[nH]1
- IC50 (second compound 0.0316 µM): > 316 nM
- IC50 (second compound 0.1 µM): > 316 nM
- IC50 (second compound 0.316 µM): > 316 nM
- IC50 (second compound 1 µM): > 316 nM
- IC50 (second compound 3.16 µM): < 0.999 nM
- IC50 (second compound 10 µM): > 316 nM
- viability, T/C (second compound 0.0316 µM, first compound 0.000999 µM): 125%
- viability, T/C (second compound 0.0316 µM, first compound 0.00316 µM): 86.2%
- viability, T/C (second compound 0.0316 µM, first compound 0.00999 µM): 106%
- viability, T/C [1]: 71.6%
- viability, T/C (second compound 0.0316 µM, first compound 0.0999 µM): 80.8%
- viability, T/C [3]: 83.3%
- viability, T/C (second compound 0.1 µM, first compound 0.000999 µM): 103%
- viability, T/C (second compound 0.1 µM, first compound 0.00316 µM): 99%
- viability, T/C (second compound 0.1 µM, first compound 0.00999 µM): 78.8%
- viability, T/C [7]: 70.6%
- viability, T/C (second compound 0.1 µM, first compound 0.0999 µM): 93.8%
- viability, T/C [9]: 73.3%
- viability, T/C (second compound 0.316 µM, first compound 0.000999 µM): 78.6%
- viability, T/C (second compound 0.316 µM, first compound 0.00316 µM): 79.3%
- viability, T/C (second compound 0.316 µM, first compound 0.00999 µM): 76.6%
- viability, T/C [13]: 72%
- viability, T/C (second compound 0.316 µM, first compound 0.0999 µM): 69.7%
- viability, T/C [15]: 60.4%
- viability, T/C (second compound 1 µM, first compound 0.000999 µM): 63.9%
- viability, T/C (second compound 1 µM, first compound 0.00316 µM): 59.2%
- viability, T/C (second compound 1 µM, first compound 0.00999 µM): 66.2%
- viability, T/C [19]: 56.7%
- viability, T/C (second compound 1 µM, first compound 0.0999 µM): 50.9%
- viability, T/C [21]: 57.7%
- viability, T/C (second compound 3.16 µM, first compound 0.000999 µM): 33.1%
- viability, T/C (second compound 3.16 µM, first compound 0.00316 µM): 43.8%
- viability, T/C (second compound 3.16 µM, first compound 0.00999 µM): 51.1%
- viability, T/C [25]: 37.9%
- viability, T/C (second compound 3.16 µM, first compound 0.0999 µM): 39.6%
- viability, T/C [27]: 40.3%
- viability, T/C (second compound 10 µM, first compound 0.000999 µM): 64.3%
- viability, T/C (second compound 10 µM, first compound 0.00316 µM): 58.9%
- viability, T/C (second compound 10 µM, first compound 0.00999 µM): 64.6%
- viability, T/C [31]: 53%
- viability, T/C (second compound 10 µM, first compound 0.0999 µM): 55.6%
- viability, T/C [33]: 51.8%
